Test results taken from patent US20250059220A1, “SUBSTITUTED BENZOTHIOPHENE DERIVATIVES AND METHODS OF USE THEREOF” (Merck Sharp & Dohme LLC, priority 2021, published 2025).

Columns and labels:
human PTPN2 (1-387) = human PTPN2 (1-387) (Homo sapiens (Human), UniProt P17706); assay: Human PTPN2 Biochemical Assay; settings: DiFMUP substrate
Procedure, shortened: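 Human PTPN2 (1-387) preincubated 30 min at RT with compound (10-point 3-fold series) in Tris pH 7.4 buffer with 0.5 mM DTT, then DiFMUP substrate added for 1 h at RT. Fluorescence at ex 360/em 460 nm, normalised to no-enzyme and enzyme controls; EC50 from 4-parameter fit.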

human PTPN1 (1-435) = human PTPN1 (1-435) (Homo sapiens (Human), UniProt P18031); assay: Human PTPN1 Biochemical Assay; settings: DiFMUP substrate, read-out: PTP1B IC50
Sequence of human PTPN1 (1-435) (P18031 whole entry): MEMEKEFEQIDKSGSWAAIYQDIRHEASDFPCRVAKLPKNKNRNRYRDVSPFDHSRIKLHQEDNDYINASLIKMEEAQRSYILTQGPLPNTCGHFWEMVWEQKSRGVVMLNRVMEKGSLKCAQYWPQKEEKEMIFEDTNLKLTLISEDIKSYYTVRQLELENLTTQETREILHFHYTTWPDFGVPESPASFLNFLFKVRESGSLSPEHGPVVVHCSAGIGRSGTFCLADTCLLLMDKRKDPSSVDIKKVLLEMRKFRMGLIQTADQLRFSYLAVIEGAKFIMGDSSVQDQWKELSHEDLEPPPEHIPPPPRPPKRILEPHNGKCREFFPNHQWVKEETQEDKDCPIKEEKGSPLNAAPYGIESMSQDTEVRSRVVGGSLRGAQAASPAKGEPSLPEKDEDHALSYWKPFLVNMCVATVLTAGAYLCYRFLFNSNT
Procedure, shortened: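 Read-out is DiFMUP hydrolysis fluorescence (360 nm excitation, 460 nm emission) after 1 h at room temperature, following 30 min enzyme–compound preincubation.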

Sequence of human PTPN2 (1-387) (P17706 other isoform, or with tags, fused parts or gaps): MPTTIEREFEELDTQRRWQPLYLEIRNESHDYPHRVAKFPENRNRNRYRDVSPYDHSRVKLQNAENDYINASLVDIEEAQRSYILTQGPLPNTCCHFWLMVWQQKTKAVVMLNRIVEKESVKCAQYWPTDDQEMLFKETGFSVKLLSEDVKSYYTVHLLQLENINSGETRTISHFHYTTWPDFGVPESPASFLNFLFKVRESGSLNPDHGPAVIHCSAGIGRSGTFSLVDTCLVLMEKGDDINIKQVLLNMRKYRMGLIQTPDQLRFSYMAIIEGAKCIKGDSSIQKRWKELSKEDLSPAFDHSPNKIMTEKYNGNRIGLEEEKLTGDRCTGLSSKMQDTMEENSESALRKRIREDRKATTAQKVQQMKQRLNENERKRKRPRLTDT

SMILES | IC50 (human PTPN2 (1-387)) [nM] | IC50 (human PTPN1 (1-435)) [nM]
O=C(NCCc1nc(-c2ccccc2)cs1)c1ccc2sc(C(F)(F)P(=O)(O)O)c(Br)c2c1 [Compound 82] | 1880 | 1390
COc1ccc2c(c1)C(CC(C)NC(=O)c1ccc3sc(C(F)(F)P(=O)(O)O)c(Br)c3c1)C=N2 (stereo not drawn) [Compound 152] | 8220 | 4410
O=C(Nc1cccc(OCC2CCCO2)c1)c1ccc2sc(C(F)(F)P(=O)(O)O)c(Br)c2c1 (stereo not drawn) [Compound 17] | 1910 | 1460
O=C(N[C@@H]1CCCC[C@H]1OCc1ccccc1)c1ccc2sc(C(F)(F)P(=O)(O)O)c(Br)c2c1 [Compound 75] | 2700 | 1850
O=C(Nc1cccc(OC(F)(F)F)c1)c1ccc2sc(C(F)(F)P(=O)(O)O)c(Br)c2c1 [Compound 18] | 2170 | 1330
O=C(NC1CCC(F)(F)C1)c1ccc2sc(C(F)(F)P(=O)(O)O)c(Br)c2c1 (stereo not drawn) [Compound 41] | 3230 | 2230
O=C(N[C@H]1CC(=O)N(C2CC2)C1)c1ccc2sc(C(F)(F)P(=O)(O)O)c(Br)c2c1 [Compound 79] | 9750 | 8100
O=C(NCc1ncc[nH]1)c1ccc2sc(C(F)(F)P(=O)(O)O)c(Br)c2c1 [Compound 174] | 4140 | 8610
O=C(NC1CCS(=O)(=O)CC1)c1ccc2sc(C(F)(F)P(=O)(O)O)c(Br)c2c1 [Compound 128] | 4900 | 4080
Cc1cnc(F)c(CNC(=O)c2ccc3sc(C(F)(F)P(=O)(O)O)c(Br)c3c2)c1 [Compound 183] | 2000 | 1410
Cn1cncc1CNC(=O)c1ccc2sc(C(F)(F)P(=O)(O)O)c(Br)c2c1 [Compound 141] | 3720 | 2320
O=C(NCC(F)(F)F)c1ccc2sc(C(F)(F)P(=O)(O)O)c(Br)c2c1 [Compound 49] | 5090 | 4150
O=C(NCc1cccnn1)c1cc(O)c2sc(C(F)(F)P(=O)(O)O)c(Br)c2c1 [Compound 166] | 3600 | 3160
CC(C)CNC(=O)c1ccc2sc(C(F)(F)P(=O)(O)O)c(Br)c2c1 [Compound 55] | 9700 | 7620
C[C@@H](NC(=O)c1ccc2sc(C(F)(F)P(=O)(O)O)c(Br)c2c1)c1cccnc1 [Compound 199] | 1710 | 1190
O=C(NCc1cn2ccccc2n1)c1ccc2sc(C(F)(F)P(=O)(O)O)c(Br)c2c1 [Compound 142] | 1870 | 2640
COc1ccc2[nH]cc(CCNC(=O)c3ccc4sc(C(F)(F)P(=O)(O)O)c(Br)c4c3)c2c1 [Compound 154] | 2770 | 1520
O=C(N[C@@H]1CCC[C@H]1OCc1ccccc1)c1ccc2sc(C(F)(F)P(=O)(O)O)c(Br)c2c1 [Compound 14] | 4120 | 2690
O=C(Nc1cccc(-n2nccn2)c1)c1ccc2sc(C(F)(F)P(=O)(O)O)c(Br)c2c1 [Compound 109] | 780 | 465
O=C(Nc1ccccc1-c1ccccc1)c1ccc2sc(C(F)(F)P(=O)(O)O)c(Br)c2c1 [Compound 62] | 1610 | 2000
Cn1nncc1CNC(=O)c1ccc2sc(C(F)(F)P(=O)(O)O)c(Br)c2c1 [Compound 193] | 5840 | 3140
O=C(NCc1ncc(F)cn1)c1ccc2sc(C(F)(F)P(=O)(O)O)c(Br)c2c1 [Compound 184] | 7340 | 4970
N=C(N)c1cc(OCCCC(F)(F)F)c2sc(C(F)(F)P(=O)(O)O)c(Br)c2c1 [Compound 262, ((3-bromo-5-carbamimidoyl-7-(4,4,4-trifluorobutoxy)benzo[b]thiophen-2-yl)difluoromethyl)phosphonic acid] | 113 | 42
Cc1cnn(CCNC(=O)c2ccc3sc(C(F)(F)P(=O)(O)O)c(Br)c3c2)c1 [Compound 149] | 6010 | 3130
O=C(NCc1cncc(C(F)(F)F)c1)c1ccc2sc(C(F)(F)P(=O)(O)O)c(Br)c2c1 [Compound 30] | 2090 | 1840
CC(Cn1cncn1)NC(=O)c1ccc2sc(C(F)(F)P(=O)(O)O)c(Br)c2c1 (stereo not drawn) [Compound 145] | 6980 | 4590

The remaining lines, values ahead:

IC50 (human PTPN2 (1-387)) [nM] | IC50 (human PTPN1 (1-435)) [nM] | SMILES
77.9 | 67.4 | NC(=O)CCCCOc1cc(C(N)=O)cc2c(Br)c(C(F)(F)P(=O)(O)O)sc12 [Compound 375]
75.7 | 177 | COc1ccc(COc2cc(C(N)=O)cc3c(Br)c(C(F)(F)P(=O)(O)O)sc23)c(C(F)(F)F)c1 [Compound 348]
55.4 | 44 | CNC(=O)c1cc(OCCCNS(C)(=O)=O)c2sc(C(F)(F)P(=O)(O)O)c(Br)c2c1 [Compound 323]
385 | 183 | CNC(=O)c1cc(OCCC(C)(F)F)c2sc(C(F)(F)P(=O)(O)O)c(Br)c2c1 [Compound 325]
114 | 117 | Cc1c(C(F)(F)P(=O)(O)O)sc2c(OCCCS(N)(=O)=O)cc(C(N)=O)cc12 [Compound 432]
14 | 12.5 | CN(C)S(=O)(=O)CCCOc1cc(C(N)=O)cc2c(Br)c(C(F)(F)P(=O)(O)O)sc12 [Compound 374]
2.6 | 3.7 | CNC(=O)c1cc(OCc2ccc(S(C)(=O)=O)cc2)c2sc(C(F)(F)P(=O)(O)O)c(Br)c2c1 [Compound 409]
14.6 | 16.5 | Cc1c(C(F)(F)P(=O)(O)O)sc2c(OCCCS(C)(=O)=O)cc(-c3c[nH]nn3)cc12 [Compound 451, (difluoro(3-methyl-7-(3-(methylsulfonyl)propoxy)-5-(1H-1,2,3-triazol-4-yl)benzo[b]thiophen-2-yl)methyl)phosphonic acid]
1460 | 903 | NC(=O)COc1cc(C(N)=O)cc2c(Br)c(C(F)(F)P(=O)(O)O)sc12 [Compound 245]
168 | 71 | NC(=O)c1cc(OCC[C@@H]2C[C@H]2C(F)(F)F)c2sc(C(F)(F)P(=O)(O)O)c(Br)c2c1 [Compound 282]
19.7 | 18.2 | NC(=O)c1cc(OCCC2CCCS2(=O)=O)c2sc(C(F)(F)P(=O)(O)O)c(Br)c2c1 (single isomer, unassigned) [Compound 372]
3740 | 4660 | O=C(Nc1ccccc1)Nc1ccc2sc(C(F)(F)P(=O)(O)O)c(Br)c2c1 [Compound 219, ((3-bromo-5-(3-phenylureido)benzo[b]thiophen-2-yl)difluoromethyl)phosphonic acid]
132 | 93 | CCOCCCOc1cc(C(N)=O)cc2c(Br)c(C(F)(F)P(=O)(O)O)sc12 [Compound 273]
34.8 | 52.6 | CS(=O)(=O)CCCCOc1cc(C(N)=O)cc2c(Br)c(C(F)(F)P(=O)(O)O)sc12 [Compound 318]
619 | 246 | NC(=O)c1cc(OCCC23CC(C2)C3)c2sc(C(F)(F)P(=O)(O)O)c(Br)c2c1 [Compound 293]
23.8 | 28.8 | NC(=O)c1cc(OCCCC2(O)CC2)c2sc(C(F)(F)P(=O)(O)O)c(Br)c2c1 [Compound 331]

IC50 (human PTPN2 (1-387)) [nM] | IC50 (human PTPN1 (1-435)) [nM] | SMILES
4.4 | 7.7 | NC(=O)c1cc(OCc2ccc(S(N)(=O)=O)cc2)c2sc(C(F)(F)P(=O)(O)O)c(Br)c2c1 [Compound 397]
16900 | 7330 | NC(=O)c1ccc2c(Br)c(C(F)(F)P(=O)(O)O)sc2c1 [Compound 300, ((3-bromo-6-carbamoylbenzo[b]thiophen-2-yl)difluoromethyl)phosphonic acid]
109 | 61.7 | CNC(=O)c1cc(OCCCS(C)(=O)=O)c2sc(C(F)(F)P(=O)(O)O)c(C)c2c1 [Compound 430]
4.4 | 36.2 | NC(=O)c1cc(OCc2ccc(-c3cccnc3)cc2)c2sc(C(F)(F)P(=O)(O)O)c(Br)c2c1 [Compound 401]
227 | 327 | CCOc1cc(C(N)=O)cc2c(Br)c(C(F)(F)P(=O)(O)O)sc12 [Compound 238]
8.9 | 9.8 | [2H]C([2H])([2H])NC(=O)c1cc(OCCCS(C)(=O)=O)c2sc(C(F)(F)P(=O)(O)O)c(Br)c2c1 [Compound 304]
6.17 | 5.1 | Cc1c(C(F)(F)P(=O)(O)O)sc2c(OCCCS(N)(=O)=O)cc(-c3nc[nH]n3)cc12 [Compound 443]
7.83 | 7.9 | N#CCCNC(=O)c1cc(OCCCS(N)(=O)=O)c2sc(C(F)(F)P(=O)(O)O)c(Br)c2c1 [Compound 328]
109 | 153 | Cc1c(C(F)(F)P(=O)(O)O)sc2c(OCCCC(C)(C)O)cc(C(N)=O)cc12 [Compound 437]
63.2 | 53.6 | CC[C@@H]1C[C@H]1COc1cc(C(N)=O)cc2c(Br)c(C(F)(F)P(=O)(O)O)sc12 [Compound 289]
60.9 | 84.5 | NC(=O)c1cc(OCC2CC3(CC3)C2)c2sc(C(F)(F)P(=O)(O)O)c(Br)c2c1 [Compound 249]
9.06 | 10.9 | O=C(NCc1cc[nH]n1)c1cc(OCCCC(F)(F)F)c2sc(C(F)(F)P(=O)(O)O)c(Br)c2c1 [Compound 201]
33 | 29.3 | CNC(=O)c1cc(OCCCS(N)(=O)=O)c2sc(C(F)(F)P(=O)(O)O)c(C)c2c1 [Compound 433]
856 | 1000 | O=P(O)(O)C(F)(F)c1sc2ccc(-c3nnc[nH]3)cc2c1Br [Compound 227, ((3-bromo-5-(4H-1,2,4-triazol-3-yl)benzo[b]thiophen-2-yl)difluoromethyl)phosphonic acid]
294 | 237 | NC(=O)c1cc(OCC(=O)Nc2c(F)cccc2F)c2sc(C(F)(F)P(=O)(O)O)c(Br)c2c1 [Compound 257]
